Results taken from US4429127A, “Quinoline carboxylic acid derivative” (Kyorin Pharmaceutical Co., Ltd., priority 1981, dated 1984).
Values after ≈ are worked out from the molar mass of the structure shown. Where two headings read alike, the source gives them in different places.

Assays:
[1] = system: gram-positive and gram-negative bacteria; assay: In vitro antibacterial activity against gram-positive and gram-negative bacteria (in words); format: cell-based; conditions: versus nalidixic acid and pipemidic acid
Method: (§1) The minimum inhibitory concentration (MIC) of the compound (I) was determined by an agar dilution technique (the standard method of Japan Society of Chemotherapy) against standard strains of gram-positive and gram-negative bacteria.

[2] = system: Salmonella enteritidis IID604; assay: In vitro antibacterial activity (MIC, agar dilution); format: cell-based; conditions: Salmonella enterica; Salmonella enteritidis IID604; inoculum 10^8 cells/ml; read-out: MIC
Method: as §1
(§2) Inoculum size: 10^8 cells/ml

[3] = system: Streptococcus pyogenes IID692; assay: as above; format: cell-based; conditions: Streptococcus pyogenes IID692; inoculum 10^8 cells/ml; read-out: MIC
Method: as §1, §2

S. faecalis IID682 = assay: as above; format: cell-based; conditions: Enterococcus faecalis; S. faecalis IID682; inoculum 10^8 cells/ml; read-out: MIC
Method: as §1, §2

[4] = system: Bacillus subtilis PCI 219; assay: as above; format: cell-based; conditions: PCI219; Bacillus subtilis PCI 219; inoculum 10^8 cells/ml; read-out: MIC
Method: as §1, §2

P. aeruginosa IFO12689 = assay: as above; format: cell-based; conditions: Pseudomonas aeruginosa; P. aeruginosa IFO12689; inoculum 10^8 cells/ml; read-out: MIC
Method: as §1, §2

[5] = system: Yersinia enterocolitica IID981; assay: as above; format: cell-based; conditions: inoculum 10^8 cells/ml
Method: as §1, §2

[6] = system: Serratia marcescens IID618; assay: as above; format: cell-based; conditions: inoculum 10^8 cells/ml
Method: as §1, §2

E. coli ATCC10536 = assay: as above; format: cell-based; conditions: Escherichia coli; E. coli ATCC10536; inoculum 10^8 cells/ml; read-out: MIC
Method: as §1, §2

[7] = system: Haemophilus influenzae IID986; assay: as above; format: cell-based; conditions: Haemophilus influenzae IID986; inoculum 10^8 cells/ml; read-out: MIC
Method: as §1, §2

P. mirabilis IID994 = assay: as above; format: cell-based; conditions: Proteus mirabilis, inoculum 10^8 cells/ml
Method: as §1, §2

S. epidermidis IID866 = assay: as above; format: cell-based; conditions: Staphylococcus epidermidis, inoculum 10^8 cells/ml
Method: as §1, §2

S. pneumoniae IID552 = assay: as above; format: cell-based; conditions: Streptococcus pneumoniae; S. pneumoniae IID552; inoculum 10^8 cells/ml; read-out: MIC
Method: as §1, §2

[8] = system: S. aureus IID670 (Terajima); assay: as above; format: cell-based; conditions: Staphylococcus aureus; S. aureus IID670 (Terajima); inoculum 10^8 cells/ml; read-out: MIC
Method: as §1, §2

[9] = system: Klebsiella pneumoniae IFO3512; assay: as above; format: cell-based; conditions: Klebsiella pneumoniae IFO3512; inoculum 10^8 cells/ml; read-out: MIC
Method: as §1, §2

[10] = system: Pseudomonas aeruginosa V-1; assay: as above; format: cell-based; conditions: V1; Pseudomonas aeruginosa V-1; inoculum 10^8 cells/ml; read-out: MIC
Method: as §1, §2

[11] = system: Staphylococcus aureus 209P; assay: as above; format: cell-based; conditions: Staphylococcus aureus 209P; inoculum 10^8 cells/ml; read-out: MIC
Method: as §1, §2

[12] = system: Acinetobacter enitratus IID876; assay: as above; format: cell-based; conditions: inoculum 10^8 cells/ml
Method: as §1, §2

[13] = system: Citrobacter freundii IID976; assay: as above; format: cell-based; conditions: inoculum 10^8 cells/ml
Method: as §1, §2

[14] = system: Alcaligenes faecalis 0104002; assay: as above; format: cell-based; conditions: inoculum 10^8 cells/ml
Method: as §1, §2

P. morganii IID602 = assay: as above; format: cell-based; conditions: Morganella morganii, inoculum 10^8 cells/ml
Method: as §1, §2

E. coli NIHJ JC-2 = assay: as above; format: cell-based; conditions: Escherichia coli, NIHJJC2; E. coli NIHJ JC-2; inoculum 10^8 cells/ml; read-out: MIC
Method: as §1, §2

Proteus vulgaris IFO3167 = assay: as above; format: cell-based; conditions: Proteus vulgaris IFO3167; inoculum 10^8 cells/ml; read-out: MIC
Method: as §1, §2

S. pyogenes S-8 = assay: as above; format: cell-based; conditions: Streptococcus pyogenes, S8; S. pyogenes S-8; inoculum 10^8 cells/ml; read-out: MIC
Method: as §1, §2

Shigella sonnei IID969 = assay: as above; format: cell-based; conditions: inoculum 10^8 cells/ml
Method: as §1, §2

[15] = system: Enterobacter cloacae IID977; assay: as above; format: cell-based; conditions: inoculum 10^8 cells/ml
Method: as §1, §2

[16] = Tissue levels after a single oral administration in mice (microbiological assay); format: in vivo; conditions: mouse; for concentration at 0.5 h / concentration at 1 h / concentration at 2 h / concentration at 4 h / concentration at 6 h: 50 mg/kg oral
Method: (§3) Tissue levels of the compound (I) after a single oral administration of 50 mg/kg in mice and rats
(§4) Tissue levels of the compound (I) were determined by micro-biological assay which employed the thin layer cup method with Bacillus subtilis ATCC6633 as the test organism. Serum and tissue levels of the compound (I) were calculated with the standard curve prepared in normal serum of the test animal species and M/15 phosphate buffer (pH 7.5), respectively.

[17] = Tissue levels after a single oral administration, mice and rats together; format: in vivo; conditions: single oral 50 mg/kg
Method: as §3, §4

[18] = kidney, read-out: Kidney concentration
[19] = liver, read-out: Liver concentration
[20] = lung, read-out: Lung concentration
[21] = serum, read-out: Serum concentration

CCn1cc(C(=O)O)c(=O)c2cc(F)c(N3CCN(Cc4ccc(N)cc4)CC3)c(F)c21 [compound (I), 7-[4-(p-aminobenzyl)-1-piperazinyl]-1-ethyl-6,8-difluoro-1,4-dihydro-4-oxoquinoline-3-carboxylic acid]
Antibacterial activity against gram-positive and gram-negative bacteria, in words [1]: more active than nalidixic acid and pipemidic acid
MIC [2]: 1.56 µg/mL (≈ 3.53 µM)
MIC [3]: 0.78 µg/mL (≈ 1.76 µM)
MIC (S. faecalis IID682): 0.78 µg/mL (≈ 1.76 µM)
MIC [4]: 0.1 µg/mL (≈ 0.226 µM)
MIC (P. aeruginosa IFO12689): 25 µg/mL (≈ 56.5 µM)
MIC [5]: 1.56 µg/mL (≈ 3.53 µM)
MIC [6]: 3.13 µg/mL (≈ 7.07 µM)
MIC (E. coli ATCC10536): 0.39 µg/mL (≈ 0.881 µM)
MIC [7]: 0.2 µg/mL (≈ 0.452 µM)
MIC (P. mirabilis IID994): 1.56 µg/mL (≈ 3.53 µM)
MIC (S. epidermidis IID866): 0.2 µg/mL (≈ 0.452 µM)
MIC (S. pneumoniae IID552): 0.39 µg/mL (≈ 0.881 µM)
MIC [8]: 0.2 µg/mL (≈ 0.452 µM)
MIC [9]: 0.1 µg/mL (≈ 0.226 µM)
MIC [10]: 12.5 µg/mL (≈ 28.3 µM)
MIC [11]: 0.1 µg/mL (≈ 0.226 µM)
MIC [12]: 0.78 µg/mL (≈ 1.76 µM)
MIC [13]: 1.56 µg/mL (≈ 3.53 µM)
MIC [14]: 3.13 µg/mL (≈ 7.07 µM)
MIC (P. morganii IID602): 1.56 µg/mL (≈ 3.53 µM)
MIC (E. coli NIHJ JC-2): 0.2 µg/mL (≈ 0.452 µM)
MIC (Proteus vulgaris IFO3167): 1.56 µg/mL (≈ 3.53 µM)
MIC (S. pyogenes S-8): 0.78 µg/mL (≈ 1.76 µM)
MIC (Shigella sonnei IID969): 0.39 µg/mL (≈ 0.881 µM)
MIC [15]: 1.56 µg/mL (≈ 3.53 µM)
concentration at 0.5 h [16, 18]: 13000 ng/mL
concentration at 1 h [16, 18]: 13000 ng/mL
concentration at 2 h [16, 18]: 7800 ng/mL
concentration at 4 h [16, 18]: 4600 ng/mL
concentration at 6 h [16, 18]: 4600 ng/mL
concentration at 0.5 h [16, 19]: 22500 ng/mL
concentration at 1 h [16, 19]: 17500 ng/mL
concentration at 2 h [16, 19]: 12000 ng/mL
concentration at 4 h [16, 19]: 9000 ng/mL
concentration at 6 h [16, 19]: 5800 ng/mL
concentration at 0.5 h [16, 20]: 12800 ng/mL
concentration at 1 h [16, 20]: 9500 ng/mL
concentration at 2 h [16, 20]: 5500 ng/mL
concentration at 4 h [16, 20]: 4300 ng/mL
concentration at 6 h [16, 20]: 2800 ng/mL
concentration at 0.5 h [16, 21]: 8600 ng/mL
concentration at 1 h [16, 21]: 6500 ng/mL
concentration at 2 h [16, 21]: 5000 ng/mL
concentration at 4 h [16, 21]: 2700 ng/mL
concentration at 6 h [16, 21]: 1800 ng/mL
Cmax ([16]; serum, mice, single oral 50 mg/kg, read-out: Peak serum level): 8600 ng/mL
Level in lung, liver and kidney relative to serum, in words ([17]; both species): higher than those in serum
Transferability in tissues, in words ([17]; mice and rats): very excellent
Tmax ([17]; serum, mice and rats, read-out: Time to peak serum level): 30 to 60 min
